# Activity calls are given as the source filed them. No cut-off for these calls is given here.
# Tests used:
# Acyl-CoA desaturase 1 [1] = biological target: T1, Acyl-CoA desaturase 1 (Rattus norvegicus, UniProt P07308); assay: Inhibition of rat SCD1
# T1 sequence (P07308 whole entry): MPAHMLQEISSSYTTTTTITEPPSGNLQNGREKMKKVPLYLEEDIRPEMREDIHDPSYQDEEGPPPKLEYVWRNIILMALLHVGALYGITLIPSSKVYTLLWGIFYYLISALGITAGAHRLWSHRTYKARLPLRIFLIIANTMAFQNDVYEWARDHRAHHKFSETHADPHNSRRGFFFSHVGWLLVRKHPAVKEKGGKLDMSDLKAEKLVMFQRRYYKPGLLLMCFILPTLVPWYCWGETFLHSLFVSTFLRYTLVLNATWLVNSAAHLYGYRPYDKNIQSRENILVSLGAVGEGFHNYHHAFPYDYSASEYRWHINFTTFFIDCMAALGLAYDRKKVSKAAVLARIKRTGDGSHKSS
# [2] = Ratio of drug uptake in left median liver lobe to harderian gland in C57/BL6 mouse at 10 mg/kg, po after 6 hrs; format: ADME, organism-based; design: dose 10 mg/kg, route oral; settings: in vivo
# Stearoyl-CoA desaturase = biological target: T2, Stearoyl-CoA desaturase (Homo sapiens, UniProt O00767); assay: Inhibition of human SCD1 expressed in human HepG2 cells assessed as conversion of [14C]stearic acid to [14C]oleic acid; format: cell-based
# T2 sequence (O00767 whole entry): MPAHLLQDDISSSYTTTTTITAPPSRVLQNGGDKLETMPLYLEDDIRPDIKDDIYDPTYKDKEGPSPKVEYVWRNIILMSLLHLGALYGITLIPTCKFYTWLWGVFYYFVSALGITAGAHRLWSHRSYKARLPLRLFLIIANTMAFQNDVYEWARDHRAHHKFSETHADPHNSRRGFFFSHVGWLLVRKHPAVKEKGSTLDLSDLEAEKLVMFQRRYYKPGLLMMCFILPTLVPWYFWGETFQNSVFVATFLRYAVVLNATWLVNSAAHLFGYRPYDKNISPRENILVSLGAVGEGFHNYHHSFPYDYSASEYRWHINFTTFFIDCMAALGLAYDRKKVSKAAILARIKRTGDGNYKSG
# Acyl-CoA desaturase 1 [3] = biological target: T1, Acyl-CoA desaturase 1; assay: Inhibition of SCD1 in Sprague-Dawley rat hepatocytes assessed as conversion of [14C]oleic acid formation by HPLC analysis; format: cell-based, Hepatocyte
# HepG2 = assay: Selectivity ratio of IC50 for human SCD1 expressed in human HepG2 cells to IC50 for rat SCD1 in Sprague-Dawley rat hepatocytes; format: cell-based
# Mus musculus [4] = assay: Acute antidiabetic activity in high fat diet fed C57/BL6 mouse eDIO model assessed as increase in glucose clearance at 100 mg/kg, po administered 1 hr prior to glucose challenge by oGTT assay; format: functional
# [5] = Plasma concentration in high sucrose/fat free diet fed C57/BL6 mouse at 100 mg/kg, po after 3 hrs; format: ADME, organism-based; design: dose 100 mg/kg, route oral
# [6] = Drug uptake in high fat diet fed C57/BL6 mouse eDIO model whole blood at 100 mg/kg, po after 3 hrs; format: ADME, organism-based; design: dose 100 mg/kg, route oral; settings: read-out: Drug uptake
# [7] = Drug uptake in high sucrose/fat free diet fed C57/BL6 mouse liver at 100 mg/kg, po after 3 hrs; format: ADME, organism-based; design: dose 100 mg/kg, route oral; settings: read-out: Drug uptake
# Mus musculus [8] = assay: Inhibition of SCD activity in high sucrose/fat free diet fed C57/BL6 mouse liver assessed as reduction in conversion of [14C]stearic acid to [14C]oleic acid at 100 mg/kg, po; format: functional
# Nucleic Acid = assay: Ratio of drug uptake in high fat diet fed C57/BL6 mouse eDIO model whole blood to high sucrose/fat free diet fed C57/BL6 mouse plasma; format: ADME; settings: in vivo
SMILES,IC50 (Acyl-CoA desaturase 1 [1]),IC50 (Stearoyl-CoA desaturase),IC50 (Acyl-CoA desaturase 1 [3]),also measured
O=C(O)c1cncc(-c2ccc(N3CCC(Oc4ccccc4C(F)(F)F)CC3)cc2)c1,8440 nM,–,–,–
O=C(O)c1cccc(-c2ccc(N3CCC(Oc4ccccc4C(F)(F)F)CC3)nn2)c1,107 nM,1110 nM,–,–
O=C(O)c1cncc(-c2ccc(N3CCC(Oc4ccccc4I)CC3)nn2)c1,27 nM,5080 nM,1000 nM,Ratio IC50 (HepG2): 5
O=C(O)c1cncc(-c2ccc(N3CCC(Oc4ccccc4Br)CC3)nn2)c1,47 nM,18300 nM,1640 nM,Ratio IC50 (HepG2): 11
O=C(O)c1ccc(-c2ccc(N3CCC(Oc4cc(F)ccc4Br)CC3)nn2)nc1,8 nM,128 nM,159 nM,–
O=C(O)c1cncc(-c2cnc(N3CCC(Oc4cc(F)ccc4Br)CC3)cn2)c1,69 nM,6720 nM,1360 nM,Ratio [2]: 12
O=C(O)c1cncc(-c2cnc(N3CCC(Oc4cc(F)ccc4Br)CC3)nn2)c1,20 nM,4470 nM,268 nM,Ratio [2]: 1.5
O=C(O)Cc1cncc(-c2ccc(N3CCC(Oc4cc(F)ccc4Br)CC3)nn2)c1,20 nM,780 nM,75 nM,Ratio [2]: 4; Ratio IC50 (HepG2): 10
O=C(O)c1cncc(-c2ccc(N3CCC(Oc4ccccc4C(F)(F)F)CC3)nn2)c1,129 nM,> 20000 nM,1300 nM,–

# Second part, led by results:
IC50 (Acyl-CoA desaturase 1 [1]),IC50 (Stearoyl-CoA desaturase),IC50 (Acyl-CoA desaturase 1 [3]),SMILES,also measured
2680 nM,–,–,O=C(O)Cc1ccc(N2CCC(Oc3ccccc3C(F)(F)F)CC2)nn1,–
24 nM,2410 nM,1930 nM,O=C(O)c1cncc(-c2ccc(N3CCC(Oc4cc(F)ccc4Br)CC3)nc2)c1,Ratio [2]: 3
1220 nM,–,–,O=C(O)c1cncc(-c2ccc(N3CCC(Oc4cc(F)ccc4Br)CC3)cn2)c1,–
105 nM,550 nM,–,O=C(O)c1ccc(-c2ccc(N3CCC(Oc4ccccc4C(F)(F)F)CC3)nn2)cc1,–
11000 nM,–,–,FC(F)(F)c1ccccc1OC1CCN(c2ccc(-c3cncc(-c4nnn[nH]4)c3)nn2)CC1,–
77 nM,9420 nM,3050 nM,O=C(O)c1cncc(-c2cnc(N3CCC(Oc4cc(F)ccc4Br)CC3)nc2)c1,Ratio [2]: 8
15 nM,8260 nM,563 nM,O=C(O)c1cncc(-c2ccc(N3CCC(Oc4cc(F)c(F)cc4Br)CC3)nn2)c1,–
> 10000 nM,–,–,O=C(O)c1ccc(N2CCC(Oc3ccccc3C(F)(F)F)CC2)nn1,–
166 nM,> 10000 nM,1890 nM,O=C(O)c1cncc(-c2ccc(N3CCC(Oc4ccccc4Cl)CC3)nn2)c1,–
772 nM,–,–,O=C(O)c1cncc(-c2ccc(N3CCC(Oc4cc(F)ccc4Br)CC3)nn2)n1,–
> 20000 nM,–,–,O=C(O)c1cncc(-c2ccc(N3CCC(Oc4c(F)cc(F)cc4Br)CC3)nn2)c1,Activity (Mus musculus [4]): inactive; concentration at 3 h [5]: 750 nM; concentration at 3 h [6]: 730 nM; concentration at 3 h [7]: 30200 nM; inhibition (Mus musculus [8]): inactive; Ratio (Nucleic Acid): < 2

# Reference: ChEMBL document CHEMBL1949499, “Nicotinic acids: liver-targeted SCD inhibitors with preclinical anti-diabetic efficacy” (Bioorg Med Chem Lett, 2011)
